“Also recorded” adds a separate entry of the source. Structures can show the parent of a compound that is named as a salt.
Tests used:
[1] = tested on: LPS activated macrophages; assay: Cytokine gene expression by RT-PCR in LPS activated bone marrow macrophages; assay type: cell-based; conditions: PEA 50 μM in DMSO, LPS 200 ng/ml, 24 hours; versus LPS alone
Description: Bone marrow macrophages were cultured for 24 hours, followed by treatment with lipopolysaccharides (LPS) from Escherichia coli O111:B4 (to activate macrophages) and the endocannabinoid molecule, dissolved in dimethyl sulfoxide (DMSO). After 24 hours of treatment, the cells are lysed, and the RNA collected. Gene expression is determined using RT-PCR. The expression of inflammatory cytokines such as Tumor Necrosis Factor Alpha (TNF-α), Interleukin-1-Beta […] and Interleukin-6 are used to determine the anti-inflammatory effect of the endocannabinoid solution. For example, macrophages were cultured for 24 hours and treated with LPS (200 ng/ml) and PEA (50 μM). After 24 hours, cells were lysed, and the RNA collected.
Bone marrow macrophages are cultured for 24 hours, followed by treatment with lipopolysaccharides (to activate macrophages) and the endocannabinoid dissolved in DMSO or endocannabinoid nanoparticle formulation at the same concentration. 24 hours after treatment, the cells were lysed, and the RNA collected. Gene expression is determined using RT-PCR. The expression of inflammatory cytokines such as Tumor Necrosis Factor Alpha (TNF-α), and Interleukin-1-Beta (IL1β) is used to determine the anti-inflammatory effect of the endocannabinoid solution.

MIA induced OA rats = assay: Paw withdrawal threshold with Von Frey filaments in MIA induced OA rats (Examples 1-2); assay type: in vivo, rat
From the text: Von Frey data typically refers to experimental data collected using the von Frey filaments or hairs, which are instruments commonly used in neuroscience and behavioral research to assess mechanical sensitivity or tactile allodynia (an increased sensitivity to touch, often associated with pain or discomfort) in animals, particularly rodents. The von Frey test involves applying calibrated filaments of varying forces to the skin of an animal, usually the hind paw of a rodent. The animal's response is overserved to determine its sensitivity to mechanical stimuli. The data collected during von Frey testing may include a) Threshold Response: The force or bending pressure at which the animal first responds to the filament. This is often referred to as the “withdrawal threshold” and is an indicator of the animal's sensitivity to touch; b) Response Frequency: The number of positive responses (e.g., paw withdrawal, licking, or shaking) to the application of the von Frey filaments. This information provides a measure of the intensity or frequency of the animal's response to the mechanical stimulus; and c) Response Latency: The time it takes for the animal to respond after the application of the von Frey filament. A shorter response latency may indicate increased sensitivity.
The injections were 50 μL each and the Bupivacaine HCL (1.5 mg/mL) was dissolved in 0.9% saline. […] FIG. 1 depicts the locations in the knee where the periarticular injections of only bupivacaine were administered.
Periarticular injections of local anesthetics into these specific locations can prolong the duration of analgesia compared to intra-articular injections into the knee joint. […]
FIG. 3 is a graph that depicts the change from the baseline pre-injury values of the animals versus time in days. […] FIG. 3 depicts the paw withdrawal threshold as measured using Von Frey filaments. in MIA induced OA rats.

[2] = tested on: female Sprague Dawley Rats injected with mono-iodoacetate to induce OA; assay: Joint diameter (vernier caliper) as measure of joint inflammation in MIA induced OA rats; assay type: in vivo, rat; conditions: periarticular, bupivacaine HCl 1.5 mg/ml, 50 μL/location
Description: This example was conducted to determine in-vivo inflammation. […] The joint inflammation is assessed via vernier caliper measurements. For example, female Sprague Dawley Rats were injected with 30 μL of mono-iodoacetate solution to induce OA. […] The injections were done under X-ray guidance using a C-arm for increased precision. Inflammation was assessed using a vernier caliper at the knee joint. […] Vernier caliper measurements show reduced inflammation in the bupivacaine+PEA nanoparticles group compared to the bupivacaine HCL only group at day 3 and day 7. At day 7, the inflammation in the bupivacaine+PEA nanoparticles group is not different from the baseline. At day 3, the inflammation in the bupivacaine HCl only group is higher than the MIA group. Statistical tests were conducted using only one way ANOVA with Brown Forsythe and Welsh tests.
FIG. 9 is a graph depicting joint diameter upto 21 days. […] The treatment groups are high does of bupivacaine HCl at 1 location (N=4), periarticular PEA nanoparticles at 2 locations +high does bupivacaine HCL at 1 location (N=5) with control of MIA (3 mg; N=6). The treatment groups with PEA nanoparticles show anti-inflammatory effects for 3 weeks. Statistical tests were conducted using only one way ANOVA with Brown Forsythe and Welsh tests.

[3] = tested on: female Sprague Dawley Rats injected with mono-iodoacetate to induce OA; assay: Paw withdrawal threshold with Electronic Von Frey in MIA induced OA rats (Examples 8-9); assay type: in vivo, rat
Description: This example was conducted to determine in-vivo pain response. […] Pain response was assessed using Von Frey filaments that measure mechanical allodynia. Paw withdrawal threshold was measured using Electronic Von Frey [IITC]. For example, female Sprague Dawley Rats were injected with 30 μL of mono-iodoacetate solution to induce OA. […] The results were compared to rodents with 2 injections of bupivacaine HCl in 0.9% saline (1.5 mg/ml) in those specific periarticular locations. […] FIG. 10 depicts electronic Von Frey measurements done with treatment groups using bupivacaine HCL periarticularly injected at 2 locations alone and periarticular injection of PEA nanoparticles with bupivacaine HCL at 2 locations.
This example was conducted to determine the effect of increasing the dosage of the local anesthetic as commonly 5 mg/mL bupivacaine is used clinically. […] For example, female Sprague Dawley Rats were injected with 30 μL of mono-iodoacetate solution (MIA) to induce OA.
Pain response was measured using Von Frey measurements. […] The PEA nanoparticles with high dose of bupivacaine HCL extended pain relief more than 4 weeks compared to a few hours in the high dose bupivacaine HCL alone group. […]

CCCCCCCCCCCCCCCC(=O)NCCO [PEA, palmitoylethanolamide]
gene expression of IL6 [1]: significantly less than in the LPS alone control group | gene expression of ILβ [1]: significantly less than in the LPS alone control group | gene expression of TNF-α [1]: significantly less than in the LPS alone control group

CCCCN1CCCCC1C(=O)Nc1c(C)cccc1C (stereo not drawn) [bupivacaine HCL, bupivacaine HCl]
duration of efficacy (analgesia) (MIA induced OA rats; intraarticular injection of same amount of bupivacaine HCL): 3 days | duration of efficacy (analgesia) (MIA induced OA rats; periarticular injection at 4 locations, 50 μL each, 1.5 mg/mL in 0.9% saline): 17 days | pain relief versus disease control (paw withdrawal threshold, change from baseline) (MIA induced OA rats; periarticular injections at 1, 2 or 4 locations): prolonged pain relief compared to the disease control | joint diameter at day 3 [2]: significantly increased joint diameter or inflammation compared to the injection of MIA alone | duration of pain relief ([3]; bupivacaine 3 mg/ml, 50 μL at one location (superior lateral)): a few hours | hypoalgesic and analgesic efficacy on increasing the bupivacaine dose ([3]; bupivacaine increased from 1.5mg/ml to 3 mg/mL (0.15% to 0.3%), HCl): significant reduction in the hypoalgesic and analgesic effect; also recorded: significantly reduced the efficacy

Source: patent US20260216214A1, “ANALGESIC COMPOSITIONS, METHOD OF MANUFACTURE AND USES THEREOF” (University of Connecticut, priority 2022, published 2026)
